In patent US7989631B2, “Hydrate forms of AMG706” (Amgen Inc., priority 2006, dated 2011):

Legend:
[1] = Conversion of anhydrous diphosphate salt to monophosphate hydrate salt in water; format: physicochemical; conditions: in the presence of water or aqueous co-solvent mixtures
From the text: The anhydrous diphosphate sale of AMG 706 is currently manufactured as a crystalline form. This crystalline form is used in the table formulations for clinical trials.
The monophosphate dihydrate salt was isolated and characterized by various analytical tools for its physico-chemical properties. Interconversion kinetics of anhydrous diphosphate to monophosphate dihydrate was studied under various conditions.

[2] = Solubility of AMG 706 anhydrous diphosphate salt in water over time; format: physicochemical; conditions: thermodynamic from solid
Experimental: AMG 706 anhydrous diphosphate (˜100 mg) salt was added to 2 mL of water and placed on a rotator stirrer. Multiple runs were performed each at different temperatures between about room temperature to about 40° C. Solid was isolated at various time points by vacuum filtering the supernatant and the material was air-dried overnight.

solubility at 0.5 hr ([2]; time 0.5 hr, RT, pH 2.6): 22 mg/mL | solubility at 1 hr ([2]; time 1.0 hr, RT, pH 2.7): 21 mg/mL | solubility at 3 hr ([2]; time 3.0 hr, RT, pH 2.7): 21 mg/mL | solubility at 6 hr ([2]; 40 C, pH 2.6): 20 mg/mL | solubility at 6 hr ([2]; RT, pH 2.6): 21 mg/mL | solubility at 24 hr ([2]; 40 C, pH 3.0): 26 mg/mL | solubility at 24 hr ([2]; RT, pH 2.9): 21 mg/mL
Compound: CC1(C)CNc2cc(NC(=O)c3cccnc3NCc3ccncc3)ccc21 [AMG 706 anhydrous diphosphate, N-(2,3-dihydro-3,3-dimethyl-1H-indol-6-yl)-2-[(4-pyridinylmethyl)amino]-3-pyridinecarboxamide]
Solid-form stability (disproportionation/conversion) [1]: can disproportionate and convert to a more stable monophosphate hydrate salt
